Key:
duck salad = test: Test B flood test duck salad; format: in vivo, Heteranthera limosa
Method in brief: (§1)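 Read-out is a visual response score from 0 (no effect) to 10 (complete control), assigned by comparison with untreated controls. Treatment was applied at the 2-leaf stage, and plants stayed in the greenhouse for twelve to sixteen days before scoring.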

smallflower flatsedge = test: Test B flood test smallflower flatsedge; format: in vivo, Cyperus difformis
Method in brief: as §1

corn = test: Test B pre/postemergence corn; format: in vivo, Zea mays
Method in brief: (§2)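 Herbicidal effect was estimated by eye on a ten-point control scale after plants spent twelve to sixteen days in a greenhouse following soil or foliar treatment. Foliar sprays targeted plants at one to four leaves; all doses were formulated in a non-phytotoxic solvent with surfactant.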

velvetleaf = test: Test B pre/postemergence velvetleaf; format: in vivo, Abutilon theophrasti
Method in brief: as §2

crabgrass = test: Test B pre/postemergence crabgrass; format: in vivo, Digitaria sanguinalis
Method in brief: as §2

rice = test: Test B flood test rice; format: in vivo, Oryza sativa
Method in brief: as §1

soybean = test: Test B pre/postemergence soybean; format: in vivo, Glycine max
Method in brief: as §2

cocklebur = test: Test B pre/postemergence cocklebur; format: in vivo, Xanthium strumarium
Method in brief: as §2

wild oat = test: Test B pre/postemergence wild oat; format: in vivo, Avena fatua
Method in brief: as §2

blackgrass = test: Test B pre/postemergence blackgrass; format: in vivo, Alopecurus myosuroides
Method in brief: as §2

bedstraw = test: Test B pre/postemergence bedstraw; format: in vivo, Galium aparine
Method in brief: as §2

sugar beet = test: Test B pre/postemergence sugar beet; format: in vivo, Beta vulgaris
Method in brief: as §2

wheat = test: Test B pre/postemergence wheat; format: in vivo, Triticum aestivum
Method in brief: as §2

bamyardgrass = test: Test B flood test barnyardgrass; format: in vivo, Echinochloa crus-galli
Method in brief: as §1

rape = test: Test B pre/postemergence rape; format: in vivo, Brassica napus
Method in brief: as §2

surinam grass = test: Test B pre/postemergence surinam grass; format: in vivo, Brachiaria decumbens
Method in brief: as §2

purple nutsedge = test: Test B pre/postemergence purple nutsedge; format: in vivo, Cyperus rotundus; settings: Postemergence
Method in brief: as §2

[1] = Rate 62 g/ha, headed Pre-emergence (flood test species), scale 0 to 10 (0 no effect, 10 complete control)
[2] = Rate 125 g/ha, Pre-emergence, flood test species, scale 0 to 10 where 0 is no effect and 10 is complete control
[3] = Rate 250 g/ha, Pre-emergence, flood-test species, scale 0 to 10, 0 is no effect, 10 is complete control
[4] = Rate 500 g/ha, Pre-emergence, flood test species, scale 0 to 10 (0 no effect, 10 complete control)
[5] = Preemergence, Rate 62 g/ha, scale of 0 to 10 where 0 is no effect and 10 is complete control
[6] = Preemergence, Rate 250 g/ha, scale of 0 to 10 where 0 is no effect and 10 is complete control
[7] = Preemergence, Rate 500 g/ha, scale of 0 to 10 where 0 is no effect and 10 is complete control
[8] = Rate 62 g/ha, Postemergence, scale of 0 to 10 where 0 is no effect and 10 is complete control
[9] = Rate 125 g/ha, Postemergence, scale 0 to 10
[10] = Rate 125 g/ha, Preemergence, scale of 0 to 10 where 0 is no effect and 10 is complete control
[11] = Rate 500 g/ha, Postemergence, scale 0 to 10, 0 no effect, 10 complete control

CC(C)N(C(=O)n1oc(=O)n(CC2(C)COC2)c1=O)c1ccc(F)cc1 [Compound 226]
7: Plant response rating, Velvetleaf (velvetleaf; [7]) | Bedstraw plant response rating (bedstraw; [11]) | Plant response rating (0 to 10; 0 is no effect, 10 is complete control), Wheat (wheat; Rate 250 g/ha, Postemergence) | Rape plant response rating (rape; [6])
5: Velvetleaf plant response rating (velvetleaf; [10]) | Crabgrass plant response rating (crabgrass; [5]) | Blackgrass plant response rating (blackgrass; [9]) | Plant response rating (0 to 10; 0 is no effect, 10 is complete control), Bedstraw (bedstraw; Rate 250 g/ha, Postemergence) | Sugarbeets plant response rating (sugar beet; [6])
0: Ducksalad plant response rating (duck salad; [1]) | Ducksalad plant response rating (duck salad; [2]) | Ducksalad plant response rating (duck salad; [3]) | Ducksalad plant response rating (duck salad; [4]) | S. Flatsedge plant response rating (smallflower flatsedge; [1]) | S. Flatsedge plant response rating (smallflower flatsedge; [2]) | S. Flatsedge plant response rating (smallflower flatsedge; [3]) | S. Flatsedge plant response rating (smallflower flatsedge; [4]) | Corn plant response rating (corn; [5]) | Corn plant response rating (corn; [8]) | Corn plant response rating (corn; [9]) | Corn plant response rating (corn; [10]) | Plant response rating (0 to 10; 0 is no effect, 10 is complete control), Corn (corn; Rate 250 g/ha, Postemergence) | Velvetleaf plant response rating (velvetleaf; [8]) | Velvetleaf plant response rating (velvetleaf; [9]) | Plant response rating (0 to 10; 0 is no effect, 10 is complete control), Velvetleaf (velvetleaf; Rate 250 g/ha, Postemergence) | Velvetleaf plant response rating (velvetleaf; [11]) | Crabgrass plant response rating (crabgrass; [8]) | Crabgrass plant response rating (crabgrass; [9]) | Rice plant response rating (rice; [1]) | Rice plant response rating (rice; [2]) | Rice plant response rating (rice; [3]) | Rice plant response rating (rice; [4]) | Soybean plant response rating (soybean; [5]) | Soybean plant response rating (soybean; [6]) | Plant response rating, Soybean (soybean; [7]) | Soybean plant response rating (soybean; [10]) | Cocklebur plant response rating (cocklebur; [5]) | Cocklebur plant response rating (cocklebur; [6]) | Plant response rating, Cocklebur (cocklebur; [7]) | Cocklebur plant response rating (cocklebur; [8]) | Cocklebur plant response rating (cocklebur; [9]) | Cocklebur plant response rating (cocklebur; [10]) | Plant response rating (0 to 10; 0 is no effect, 10 is complete control), Cocklebur (cocklebur; Rate 250 g/ha, Postemergence) | Wild oats plant response rating (wild oat; [8]) | Wild oats plant response rating (wild oat; [9]) | Plant response rating (0 to 10; 0 is no effect, 10 is complete control), Wild oats (wild oat; Rate 250 g/ha, Postemergence) | Blackgrass plant response rating (blackgrass; [8]) | Bedstraw plant response rating (bedstraw; [5]) | Bedstraw plant response rating (bedstraw; [6]) | Plant response rating, Bedstraw (bedstraw; [7]) | Bedstraw plant response rating (bedstraw; [8]) | Bedstraw plant response rating (bedstraw; [10]) | Sugarbeets plant response rating (sugar beet; [5]) | Sugarbeets plant response rating (sugar beet; [8]) | Sugarbeets plant response rating (sugar beet; [9]) | Plant response rating (0 to 10; 0 is no effect, 10 is complete control), Sugarbeets (sugar beet; Rate 250 g/ha, Postemergence) | Barnyardgrass plant response rating (bamyardgrass; [1]) | Barnyardgrass plant response rating (bamyardgrass; [2]) | Barnyardgrass plant response rating (bamyardgrass; [3]) | Barnyardgrass plant response rating (bamyardgrass; [4]) | Rape plant response rating (rape; [5]) | Rape plant response rating (rape; [8]) | Rape plant response rating (rape; [9]) | Rape plant response rating (rape; [10]) | Plant response rating (0 to 10; 0 is no effect, 10 is complete control), Rape (rape; Rate 250 g/ha, Postemergence) | B. signalgrass plant response rating (surinam grass; [8]) | Nutsedge plant response rating (purple nutsedge; Rate 62 g/ha, scale of 0 to 10 where 0 is no effect and 10 is complete control) | Nutsedge plant response rating (purple nutsedge; Rate 125 g/ha, scale 0 to 10) | Plant response rating (0 to 10; 0 is no effect, 10 is complete control), Nutsedge (purple nutsedge; Rate 250 g/ha)
8: Crabgrass plant response rating (crabgrass; [11]) | Plant response rating (0 to 10; 0 is no effect, 10 is complete control), Blackgrass (blackgrass; Rate 250 g/ha, Postemergence) | Wheat plant response rating (wheat; [6]) | Plant response rating, Wheat (wheat; [7]) | Wheat plant response rating (wheat; [10])
6: Corn plant response rating (corn; [6]) | Corn plant response rating (corn; [11]) | Velvetleaf plant response rating (velvetleaf; [6]) | Soybean plant response rating (soybean; [11]) | Plant response rating, Sugarbeets (sugar beet; [7]) | Wheat plant response rating (wheat; [5]) | Rape plant response rating (rape; [11]) | B. signalgrass plant response rating (surinam grass; [10]) | Plant response rating (0 to 10; 0 is no effect, 10 is complete control), B. signalgrass (surinam grass; Rate 250 g/ha, Postemergence)
9: Plant response rating, Corn (corn; [7]) | Crabgrass plant response rating (crabgrass; [10]) | Wild oats plant response rating (wild oat; [6]) | Blackgrass plant response rating (blackgrass; [11]) | Wheat plant response rating (wheat; [11]) | B. signalgrass plant response rating (surinam grass; Preemergence, Rate 250 g/ha, scale 0 to 10, 0 is no effect, 10 is complete control) | B. signalgrass plant response rating (surinam grass; [11])
10: Crabgrass plant response rating (crabgrass; [6]) | Plant response rating, Crabgrass (crabgrass; [7]) | Plant response rating, Wild oats (wild oat; [7]) | Blackgrass plant response rating (blackgrass; [5]) | Blackgrass plant response rating (blackgrass; [6]) | Plant response rating, Blackgrass (blackgrass; [7]) | Blackgrass plant response rating (blackgrass; [10]) | Plant response rating, Rape (rape; [7]) | Plant response rating, B. signalgrass (surinam grass; [7])
2: Velvetleaf plant response rating (velvetleaf; [5]) | Soybean plant response rating (soybean; [8]) | Soybean plant response rating (soybean; [9]) | Cocklebur plant response rating (cocklebur; [11]) | Sugarbeets plant response rating (sugar beet; [11]) | Wheat plant response rating (wheat; [8]) | B. signalgrass plant response rating (surinam grass; Rate 125 g/ha, Postemergence, scale 0 (no effect) to 10 (complete control))
4: Wheat plant response rating (wheat; [9]) | Nutsedge plant response rating (purple nutsedge; Rate 500 g/ha, scale 0 to 10, 0 no effect, 10 complete control)
1: Wild oats plant response rating (wild oat; [5])
3: Plant response rating (0 to 10; 0 is no effect, 10 is complete control), Crabgrass (crabgrass; Rate 250 g/ha, Postemergence) | Plant response rating (0 to 10; 0 is no effect, 10 is complete control), Soybean (soybean; Rate 250 g/ha, Postemergence) | Wild oats plant response rating (wild oat; [10]) | Wild oats plant response rating (wild oat; [11]) | Bedstraw plant response rating (bedstraw; [9]) | Sugarbeets plant response rating (sugar beet; [10]) | B. signalgrass plant response rating (surinam grass; [5])

Source: patent publication US6737383B1, “Herbicidal oxadiazolidines” (priority 1999, dated 2004)
